Laboratory results: US12077503B2, “Substituted cyclic amides and their use as herbicides” (FMC CORPORATION, priority 2015, dated 2024)
Where two headings read alike, the source gives them in different places.

Key:
Type in all cases: in vivo
[1] = system: Kochia (Kochia scoparia); assay: Test A preemergence; conditions: Bassia scoparia, pre-emergence, 240 h; for pest or weed control at 125 g/ha: 125 g ai/ha, visual rating after approx. 10 d, read-out: Plant response rating, Kochia; for pest or weed control at 500 g/ha: 500 g ai/ha
Method in brief: (§1)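 Preemergence directed soil spray on seeded pots, or postemergence application to plants 2–10 cm, one- to two-leaf. Solvent mixture non-phytotoxic, with surfactant. Scored ~10 d later, visually, 0–100 vs untreated.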

[2] = system: barnyardgrass (Echinochloa crus-galli); assay: Test A preemergence; conditions: Echinochloa crus-galli, pre-emergence, 240 h; for pest or weed control at 125 g/ha: 125 g ai/ha, 0 to 100 scale where 0 is no effect and 100 is complete control; for pest or weed control at 500 g/ha: 500 g ai/ha
Method in brief: as §1

[3] = system: giant foxtail (Setaria faberii); assay: Test A preemergence; conditions: Setaria faberi, pre-emergence, 240 h; for pest or weed control at 125 g/ha: 125 g ai/ha; for pest or weed control at 500 g/ha: 500 g ai/ha
Method in brief: as §1

[4] = system: pigweed (Amaranthus retroflexus); assay: Test A preemergence; conditions: Amaranthus retroflexus, pre-emergence, 240 h; for pest or weed control at 125 g/ha: 125 g ai/ha; for pest or weed control at 500 g/ha: 500 g ai/ha
[5] = system: ragweed (common ragweed, Ambrosia elatior); assay: Test A preemergence; conditions: Ambrosia artemisiifolia, pre-emergence, 240 h; for pest or weed control at 125 g/ha: 125 g ai/ha; for pest or weed control at 500 g/ha: 500 g ai/ha
Method in brief: as §1

[6] = system: ryegrass, Italian (Italian ryegrass, Lolium multiflorum); assay: Test A preemergence; conditions: Lolium multiflorum, pre-emergence, 240 h; for pest or weed control at 125 g/ha: 125 g ai/ha; for pest or weed control at 500 g/ha: 500 g ai/ha
Method in brief: as §1

[7] = system: Galium (catchweed bedstraw, Galium aparine); assay: Test A postemergence; conditions: Galium, post-emergence, 240 h, postemergence; for pest or weed control at 125 g/ha: 125 g ai/ha
Method in brief: as §1

[8] = system: Kochia (Kochia scoparia); assay: Test A postemergence; conditions: Bassia scoparia, post-emergence, 240 h, postemergence; for pest or weed control at 125 g/ha: 125 g ai/ha
Method in brief: as §1

[9] = system: corn (Zea mays); assay: Test A postemergence; conditions: Zea mays, post-emergence, 240 h, postemergence; for Corn plant response rating (crop injury, 0 = no effect, 100 = complete kill) at 125 g/ha: visual injury after approximately 10 d, 0 to 100 scale (0 no effect, 100 complete control)
Method in brief: as §1

[10] = system: pigweed (Amaranthus retroflexus); assay: Test A postemergence; conditions: Amaranthus retroflexus, post-emergence, 240 h, postemergence; for pest or weed control at 125 g/ha: 125 g ai/ha
Method in brief: as §1

[11] = system: barnyardgrass (Echinochloa crus-galli); assay: Test B flooded paddy test; conditions: Echinochloa crus-galli, Flood, 250 g ai/ha, read-out: Barnyardgrass plant response rating
Method in brief: (§2)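 Plants at 2-leaf stage flooded to 3 cm above soil, with compounds applied directly to paddy water and that depth maintained. Plants kept in greenhouse 13–15 d. Visual rating versus controls on a 0 (no effect) to 100 (complete control) scale.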

[12] = system: ducksalad (Heteranthera limosa); assay: Test B flooded paddy test; conditions: Heteranthera limosa, Flood, 250 g ai/ha, read-out: Ducksalad plant response rating
Method in brief: as §2

[13] = system: rice (Oryra sativa); assay: Test B flooded paddy test; conditions: Oryza sativa, Flood, 250 g ai/ha, read-out: Rice plant response rating
Method in brief: as §2

[14] = system: sedge, umbrella (small-flower umbrella sedge, Cyperus difformis); assay: Test B flooded paddy test; conditions: Cyperus difformis, Flood, 250 g ai/ha, read-out: Sedge, Umbrella plant response rating
Method in brief: as §2

[15] = preemergence, 0 to 100 scale where 0 is no effect and 100 is complete control
[16] = Preemergence, visual injury vs untreated controls after approximately 10 d, read-out: Kochia plant response rating (0 to 100 scale where 0 is no effect and 100 is complete control)
[17] = preemergence, visual rating after approx. 10 d, read-out: Plant response rating, Barnyardgrass
[18] = Preemergence, visual injury vs untreated controls after approximately 10 d, read-out: Barnyardgrass plant response rating (0 to 100 scale where 0 is no effect and 100 is complete control)
[19] = preemergence, visual rating after approx. 10 d, 0 to 100 scale where 0 is no effect and 100 is complete control, read-out: Plant response rating, Foxtail, Giant
[20] = Preemergence, visual injury vs untreated controls after approximately 10 d, read-out: Foxtail, Giant plant response rating (0 to 100 scale where 0 is no effect and 100 is complete control)
[21] = preemergence, visual rating after approx. 10 d, 0 to 100 scale where 0 is no effect and 100 is complete control, read-out: Plant response rating, Pigweed
[22] = Preemergence, visual injury vs untreated controls after approximately 10 d, read-out: Pigweed plant response rating (0 to 100 scale where 0 is no effect and 100 is complete control)
[23] = preemergence, visual rating after approx. 10 d, 0 to 100 scale where 0 is no effect and 100 is complete control, read-out: Plant response rating, Ragweed
[24] = Preemergence, visual injury vs untreated controls after approximately 10 d, read-out: Ragweed plant response rating (0 to 100 scale where 0 is no effect and 100 is complete control)
[25] = preemergence, visual rating after approx. 10 d, 0 to 100 scale where 0 is no effect and 100 is complete control, read-out: Plant response rating, Ryegrass, Italian
[26] = Preemergence, visual injury vs untreated controls after approximately 10 d, read-out: Ryegrass, Italian plant response rating (0 to 100 scale where 0 is no effect and 100 is complete control)
[27] = visual injury after approximately 10 d, 0 to 100 scale (0 no effect, 100 complete control), read-out: Plant response rating, Galium
[28] = visual injury after approximately 10 d, 0 to 100 scale (0 no effect, 100 complete control), read-out: Plant response rating, Kochia
[29] = visual injury after approximately 10 d, 0 to 100 scale (0 no effect, 100 complete control), read-out: Plant response rating, Pigweed
[30] = scale of 0 to 100 where 0 is no effect and 100 is complete control
[31] = 0 to 100 scale where 0 is no effect and 100 is complete control

CN1C[C@H](c2nccs2)[C@@H](C(=O)Nc2cccc(F)c2F)C1=O [Compound 774]
pest or weed control at 125 g/ha [1, 15]: 0% | pest or weed control at 500 g/ha [1, 16]: 0% | pest or weed control at 125 g/ha [2, 17]: 0% | pest or weed control at 500 g/ha [2, 18]: 0% | pest or weed control at 125 g/ha [3, 19]: 0% | pest or weed control at 500 g/ha [3, 20]: 0% | pest or weed control at 125 g/ha [4, 21]: 0% | pest or weed control at 500 g/ha [4, 22]: 0% | pest or weed control at 125 g/ha [5, 23]: 0% | pest or weed control at 500 g/ha [5, 24]: 0% | pest or weed control at 125 g/ha [6, 25]: 0% | pest or weed control at 500 g/ha [6, 26]: 0% | pest or weed control at 125 g/ha [7, 27]: 0% | pest or weed control at 125 g/ha [8, 28]: 0% | Corn plant response rating (crop injury, 0 = no effect, 100 = complete kill) at 125 g/ha ([9]; 125 g ai/ha): 0% | pest or weed control at 125 g/ha [10, 29]: 0% | pest or weed control at 250 g/ha [11, 30]: 0% | pest or weed control at 250 g/ha [12, 30]: 0% | pest or weed control at 250 g/ha [13, 30]: 0% | pest or weed control at 250 g/ha [14, 30]: 0%

CN1C[C@H](c2csc3ccccc23)[C@@H](C(=O)Nc2ccccc2F)C1=O [Compound 1114]
pest or weed control at 500 g/ha ([1]; preemergence, 0 to 100 scale where 0 is no effect and 100 is complete control, read-out: Kochia plant response rating): 60% | pest or weed control at 125 g/ha ([2]; preemergence, approx. 10 d, read-out: Barnyardgrass plant response rating): 90% | pest or weed control at 500 g/ha ([2]; preemergence, visual injury rating about 10 d after treatment, 0 to 100 scale (0 no effect, 100 complete control), read-out: Barnyardgrass plant response rating): 90% | pest or weed control at 125 g/ha ([3]; preemergence, 0 to 100 scale where 0 is no effect and 100 is complete control, approx. 10 d, read-out: Foxtail, Giant plant response rating): 90% | pest or weed control at 500 g/ha ([3]; preemergence, 0 to 100 scale where 0 is no effect and 100 is complete control, read-out: Foxtail, Giant plant response rating): 90% | pest or weed control at 125 g/ha ([4]; preemergence, 0 to 100 scale where 0 is no effect and 100 is complete control, approx. 10 d, read-out: Pigweed plant response rating): 0% | pest or weed control at 500 g/ha ([4]; preemergence, 0 to 100 scale where 0 is no effect and 100 is complete control, read-out: Pigweed plant response rating): 0% | pest or weed control at 125 g/ha ([5]; preemergence, 0 to 100 scale where 0 is no effect and 100 is complete control, approx. 10 d, read-out: Ragweed plant response rating): 0% | pest or weed control at 500 g/ha ([5]; preemergence, 0 to 100 scale where 0 is no effect and 100 is complete control, read-out: Ragweed plant response rating): 0% | pest or weed control at 125 g/ha ([6]; preemergence, 0 to 100 scale where 0 is no effect and 100 is complete control, approx. 10 d, read-out: Ryegrass, Italian plant response rating): 0% | pest or weed control at 500 g/ha ([6]; preemergence, 0 to 100 scale where 0 is no effect and 100 is complete control, read-out: Ryegrass, Italian plant response rating): 20% | pest or weed control at 125 g/ha ([7]; visual injury on 0 to 100 scale (0 no effect, 100 complete control), approx. 10 d, read-out: Galium plant response rating): 0% | pest or weed control at 500 g/ha ([7]; 500 g ai/ha, 0 to 100 scale, 0 is no effect, 100 is complete control, read-out: Galium plant response rating): 20% | pest or weed control at 125 g/ha ([8]; visual injury on 0 to 100 scale (0 no effect, 100 complete control), approx. 10 d, read-out: Kochia plant response rating): 0% | pest or weed control at 500 g/ha ([8]; 500 g ai/ha, 0 to 100 scale, 0 is no effect, 100 is complete control, read-out: Kochia plant response rating): 20% | plant injury at 125 g/ha ([9]; 125 g ai/ha, visual injury on 0 to 100 scale (0 no effect, 100 complete control), approx. 10 d, read-out: Corn plant response rating): 0% | plant injury at 500 g/ha ([9]; 500 g ai/ha, 0 to 100 scale, 0 is no effect, 100 is complete control, read-out: Corn plant response rating): 70% | pest or weed control at 125 g/ha ([10]; visual injury on 0 to 100 scale (0 no effect, 100 complete control), approx. 10 d, read-out: Pigweed plant response rating): 0% | pest or weed control at 500 g/ha ([10]; 500 g ai/ha, 0 to 100 scale, 0 is no effect, 100 is complete control, read-out: Pigweed plant response rating): 0% | pest or weed control at 250 g/ha [11, 31]: 45% | pest or weed control at 250 g/ha [12, 31]: 85% | pest or weed control at 250 g/ha [13, 31]: 0% | pest or weed control at 250 g/ha [14, 31]: 0%

CN1C[C@H](c2ccc(OC(F)F)cc2)[C@@H](C(=O)Nc2ccccc2S(C)(=O)=O)C1=O [Compound 788]
pest or weed control at 125 g/ha [1, 15]: 80% | pest or weed control at 500 g/ha [1, 16]: 80% | pest or weed control at 125 g/ha [2, 17]: 90% | pest or weed control at 500 g/ha [2, 18]: 90% | pest or weed control at 125 g/ha [3, 19]: 90% | pest or weed control at 500 g/ha [3, 20]: 100% | pest or weed control at 125 g/ha [4, 21]: 80% | pest or weed control at 500 g/ha [4, 22]: 90% | pest or weed control at 125 g/ha [5, 23]: 80% | pest or weed control at 500 g/ha [5, 24]: 90% | pest or weed control at 125 g/ha [6, 25]: 0% | pest or weed control at 500 g/ha [6, 26]: 40% | pest or weed control at 125 g/ha [7, 27]: 50% | pest or weed control at 125 g/ha [8, 28]: 40% | Corn plant response rating (crop injury, 0 = no effect, 100 = complete kill) at 125 g/ha ([9]; 125 g ai/ha): 20% | pest or weed control at 125 g/ha [10, 29]: 60% | pest or weed control at 250 g/ha [11, 30]: 20% | pest or weed control at 250 g/ha [12, 30]: 60% | pest or weed control at 250 g/ha [13, 30]: 0% | pest or weed control at 250 g/ha [14, 30]: 0%
